Test results published in ChEMBL document CHEMBL1137894, “3-Thio-quinolinone maxi-K openers for the treatment of erectile dysfunction” (2004).

test system: Oocyte; experiment: Percentage opening of human Maxi-K channel in transfected oocyte cells at 20 uM; assay type: cell-based

SMILES | Activity [%]
NC(=O)C1CCN(C(=O)CSc2c(O)nc3ccc(C(F)(F)F)cc3c2-c2cc(Cl)ccc2O)CC1 | 203
O=C(CCCN1CCC(N2CCCCC2)CC1)Nc1ccc(Sc2c(O)nc3ccc(C(F)(F)F)cc3c2-c2cc(Cl)ccc2O)cc1 | 268
CN(C)CCCN(C)CCC(=O)CSc1c(O)nc2ccc(C(F)(F)F)cc2c1-c1cc(Cl)ccc1O | 178
CCOC(=O)CN1CCN(C(=O)CSc2c(O)nc3ccc(C(F)(F)F)cc3c2-c2cc(Cl)ccc2O)CC1 | 281
COc1ccc(Cl)cc1-c1c(SCC(O)CN2CCC(C)CC2)c(O)nc2ccc(C(F)(F)F)cc12 (stereo not drawn) | 115
O=C(CN1CCCC1)Nc1ccc(Sc2c(O)nc3ccc(C(F)(F)F)cc3c2-c2cc(Cl)ccc2O)cc1 | 291
CCN(CC)CC(O)CSc1c(O)nc2ccc(C(F)(F)F)cc2c1-c1cc(Cl)ccc1O (stereo not drawn) | 192
CN(C)CCN(C)CC(=O)Nc1ccc(Sc2c(O)nc3ccc(C(F)(F)F)cc3c2-c2cc(Cl)ccc2O)cc1 | 231
COc1ccc(Cl)cc1-c1c(SCC(O)CN2CCC(O)CC2)c(O)nc2ccc(C(F)(F)F)cc12 (stereo not drawn) | 125
O=c1[nH]c2ccc(C(F)(F)F)cc2c(-c2cc(Cl)ccc2O)c1CCO [BMS-223131] | 378
CN(C)CCCN(C)CC(O)CSc1c(O)nc2ccc(C(F)(F)F)cc2c1-c1cc(Cl)ccc1O (stereo not drawn) | 214
CN(C)CCN(C)CCC(=O)Nc1ccc(Sc2c(O)nc3ccc(C(F)(F)F)cc3c2-c2cc(Cl)ccc2O)cc1 | 489
COc1ccc(Cl)cc1-c1c(SCC(O)CN2CCSCC2)c(O)nc2ccc(C(F)(F)F)cc12 (stereo not drawn) | 97
O=C(CSc1c(O)nc2ccc(C(F)(F)F)cc2c1-c1cc(Cl)ccc1O)N1CCN(CCO)CC1 | 151
O=C(CCN1CCC(O)CC1)CSc1c(O)nc2ccc(C(F)(F)F)cc2c1-c1cc(Cl)ccc1O | 235
COc1ccc(Cl)cc1-c1c(SCC(O)CN2CCN(C)CC2)c(O)nc2ccc(C(F)(F)F)cc12 (stereo not drawn) | 163
COc1ccc(Cl)cc1-c1c(SCC(O)CN2CCN(C(C)=O)CC2)c(O)nc2ccc(C(F)(F)F)cc12 (stereo not drawn) | 192
COc1ccc(Cl)cc1-c1c(Sc2ccc(NS(=O)(=O)C(F)(F)F)cc2)c(O)nc2ccc(C(F)(F)F)cc12 | 235
Oc1ccc(Cl)cc1-c1c(SCC(O)CN2CCSCC2)c(O)nc2ccc(C(F)(F)F)cc12 (stereo not drawn) | 319
CN1CCC(N(C)CCCC(=O)CSc2c(O)nc3ccc(C(F)(F)F)cc3c2-c2cc(Cl)ccc2O)C1 (stereo not drawn) | 226
Oc1ccc(Cl)cc1-c1c(SCC(O)CN2CCCC2)c(O)nc2ccc(C(F)(F)F)cc12 (stereo not drawn) | 192
O=C(CCN1CCOCC1)Nc1ccc(Sc2c(O)nc3ccc(C(F)(F)F)cc3c2-c2cc(Cl)ccc2O)cc1 | 453
O=S(=O)(Nc1ccc(Sc2c(O)nc3ccc(C(F)(F)F)cc3c2-c2cc(Cl)ccc2O)cc1)C(F)(F)F | 277
CN1CCN(CCC(=O)Nc2ccc(Sc3c(O)nc4ccc(C(F)(F)F)cc4c3-c3cc(Cl)ccc3O)cc2)CC1 | 474

SMILES | Activity [%]
O=C(CN1CCC(N2CCCCC2)CC1)Nc1ccc(Sc2c(O)nc3ccc(C(F)(F)F)cc3c2-c2cc(Cl)ccc2O)cc1 | 283
O=S(=O)(CC(F)(F)F)Nc1ccc(Sc2c(O)nc3ccc(C(F)(F)F)cc3c2-c2cc(Cl)ccc2O)cc1 | 170
OCCN1CCN(CC(O)CSc2c(O)nc3ccc(C(F)(F)F)cc3c2-c2cc(Cl)ccc2O)CC1 (stereo not drawn) | 287
O=C(CCN1CCC(N2CCCCC2)CC1)Nc1ccc(Sc2c(O)nc3ccc(C(F)(F)F)cc3c2-c2cc(Cl)ccc2O)cc1 | 255
CN1CCN(CC(=O)Nc2ccc(Sc3c(O)nc4ccc(C(F)(F)F)cc4c3-c3cc(Cl)ccc3O)cc2)CC1 | 246
CN(C)C1CCN(CC(=O)Nc2ccc(Sc3c(O)nc4ccc(C(F)(F)F)cc4c3-c3cc(Cl)ccc3O)cc2)CC1 | 292
O=C(CCCN1CCCC1)Nc1ccc(Sc2c(O)nc3ccc(C(F)(F)F)cc3c2-c2cc(Cl)ccc2O)cc1 | 280
CC1CCCN(CCCC(=O)CSc2c(O)nc3ccc(C(F)(F)F)cc3c2-c2cc(Cl)ccc2O)C1 (stereo not drawn) | 271
O=C(CCN1CCCC1)CSc1c(O)nc2ccc(C(F)(F)F)cc2c1-c1cc(Cl)ccc1O | 335
O=C(CCN1CCN(CCO)CC1)CSc1c(O)nc2ccc(C(F)(F)F)cc2c1-c1cc(Cl)ccc1O | 241
CN(C)C1CCN(C(=O)CSc2c(O)nc3ccc(C(F)(F)F)cc3c2-c2cc(Cl)ccc2O)CC1 | 286
CN1CCN(CCC(=O)CSc2c(O)nc3ccc(C(F)(F)F)cc3c2-c2cc(Cl)ccc2O)CC1 | 550
O=C(CSc1c(O)nc2ccc(C(F)(F)F)cc2c1-c1cc(Cl)ccc1O)N1CCN(CCOCCO)CC1 | 205
O=S(=O)(CCCN1CCOCC1)Nc1ccc(Sc2c(O)nc3ccc(C(F)(F)F)cc3c2-c2cc(Cl)ccc2O)cc1 | 354
CC1CCN(CCCC(=O)CSc2c(O)nc3ccc(C(F)(F)F)cc3c2-c2cc(Cl)ccc2O)CC1 | 213
CN(CCCN1CCN(C)CC1)CCC(O)CSc1c(O)nc2ccc(C(F)(F)F)cc2c1-c1cc(Cl)ccc1O (stereo not drawn) | 515
CC(=O)N1CCN(CCCC(=O)CSc2c(O)nc3ccc(C(F)(F)F)cc3c2-c2cc(Cl)ccc2O)CC1 | 284
CN(C)CCN1CCN(CC(O)CSc2c(O)nc3ccc(C(F)(F)F)cc3c2-c2cc(Cl)ccc2O)CC1 (stereo not drawn) | 113
O=C(CCN1CCCCC1)CSc1c(O)nc2ccc(C(F)(F)F)cc2c1-c1cc(Cl)ccc1O | 199
O=C(CCN1CCCC1)Nc1ccc(Sc2c(O)nc3ccc(C(F)(F)F)cc3c2-c2cc(Cl)ccc2O)cc1 | 264
CN1CCN(C(=O)CSc2c(O)nc3ccc(C(F)(F)F)cc3c2-c2cc(Cl)ccc2O)CC1 | 422
O=C(CCCN1CCC(N2CCCCC2)CC1)CSc1c(O)nc2ccc(C(F)(F)F)cc2c1-c1cc(Cl)ccc1O | 298
Oc1ccc(Cl)cc1-c1c(SCC(O)CN2CCOCC2)c(O)nc2ccc(C(F)(F)F)cc12 (stereo not drawn) | 292

test system: Oocyte; experiment: Percentage opening of human Maxi-K channel in transfected oocyte cells at 10 uM; assay type: cell-based

SMILES | Activity [%]
O=C(CCN1CCN(c2ccccn2)CC1)Nc1ccc(Sc2c(O)nc3ccc(C(F)(F)F)cc3c2-c2cc(Cl)ccc2O)cc1 | 169
CCS(=O)(=O)Nc1ccc(Sc2c(O)nc3ccc(C(F)(F)F)cc3c2-c2cc(Cl)ccc2O)cc1 | 296
O=C(CCCN1CCN(c2ccccn2)CC1)Nc1ccc(Sc2c(O)nc3ccc(C(F)(F)F)cc3c2-c2cc(Cl)ccc2O)cc1 | 197
O=C(CN1CCOCC1)Nc1ccc(Sc2c(O)nc3ccc(C(F)(F)F)cc3c2-c2cc(Cl)ccc2O)cc1 | 296

test system: Oocyte; experiment: Percentage opening of human Maxi-K channel in transfected oocyte cells at 5 uM; assay type: cell-based

SMILES | Activity [%]
COc1ccc(Cl)cc1-c1c(SCC(O)CN2CCN(c3ncccn3)CC2)c(O)nc2ccc(C(F)(F)F)cc12 (stereo not drawn) | 80
COc1ccc(Cl)cc1-c1c(Sc2ccc(NS(=O)(=O)N(C)C)cc2)c(O)nc2ccc(C(F)(F)F)cc12 | 114
CN(C)S(=O)(=O)Nc1ccc(Sc2c(O)nc3ccc(C(F)(F)F)cc3c2-c2cc(Cl)ccc2O)cc1 | 222
O=C(CN1CCN(c2ccccn2)CC1)Nc1ccc(Sc2c(O)nc3ccc(C(F)(F)F)cc3c2-c2cc(Cl)ccc2O)cc1 | 116
CCCS(=O)(=O)Nc1ccc(Sc2c(O)nc3ccc(C(F)(F)F)cc3c2-c2cc(Cl)ccc2OC)cc1 | 95
CCCS(=O)(=O)Nc1ccc(Sc2c(O)nc3ccc(C(F)(F)F)cc3c2-c2cc(Cl)ccc2O)cc1 | 255

organism: Oryctolagus cuniculus; experiment: Percentage relaxation of phenylephrine-contracted rabbit corpus cavernosum tissue strips at concentration of 10 uM; assay type: functional

SMILES | Relaxation [%]
NC(=O)C1CCN(C(=O)CSc2c(O)nc3ccc(C(F)(F)F)cc3c2-c2cc(Cl)ccc2O)CC1 | 67
O=C(CCN1CCN(c2ccccn2)CC1)Nc1ccc(Sc2c(O)nc3ccc(C(F)(F)F)cc3c2-c2cc(Cl)ccc2O)cc1 | 37
O=C(CCCN1CCC(N2CCCCC2)CC1)Nc1ccc(Sc2c(O)nc3ccc(C(F)(F)F)cc3c2-c2cc(Cl)ccc2O)cc1 | 28
CCOC(=O)CN1CCN(C(=O)CSc2c(O)nc3ccc(C(F)(F)F)cc3c2-c2cc(Cl)ccc2O)CC1 | 19
O=C(CN1CCCC1)Nc1ccc(Sc2c(O)nc3ccc(C(F)(F)F)cc3c2-c2cc(Cl)ccc2O)cc1 | 28
CCN(CC)CC(O)CSc1c(O)nc2ccc(C(F)(F)F)cc2c1-c1cc(Cl)ccc1O (stereo not drawn) | 57
CN(C)CCN(C)CC(=O)Nc1ccc(Sc2c(O)nc3ccc(C(F)(F)F)cc3c2-c2cc(Cl)ccc2O)cc1 | 16
O=c1[nH]c2ccc(C(F)(F)F)cc2c(-c2cc(Cl)ccc2O)c1CCO [BMS-223131] | 83.7
CN(C)CCN(C)CCC(=O)Nc1ccc(Sc2c(O)nc3ccc(C(F)(F)F)cc3c2-c2cc(Cl)ccc2O)cc1 | 29
O=C(CSc1c(O)nc2ccc(C(F)(F)F)cc2c1-c1cc(Cl)ccc1O)N1CCN(CCO)CC1 | 22
COc1ccc(Cl)cc1-c1c(Sc2ccc(NS(=O)(=O)C(F)(F)F)cc2)c(O)nc2ccc(C(F)(F)F)cc12 | 21
Oc1ccc(Cl)cc1-c1c(SCC(O)CN2CCSCC2)c(O)nc2ccc(C(F)(F)F)cc12 (stereo not drawn) | 48
O=C(CCN1CCOCC1)Nc1ccc(Sc2c(O)nc3ccc(C(F)(F)F)cc3c2-c2cc(Cl)ccc2O)cc1 | 22
O=S(=O)(Nc1ccc(Sc2c(O)nc3ccc(C(F)(F)F)cc3c2-c2cc(Cl)ccc2O)cc1)C(F)(F)F | 32
CN1CCN(CCC(=O)Nc2ccc(Sc3c(O)nc4ccc(C(F)(F)F)cc4c3-c3cc(Cl)ccc3O)cc2)CC1 | 30
O=C(CN1CCC(N2CCCCC2)CC1)Nc1ccc(Sc2c(O)nc3ccc(C(F)(F)F)cc3c2-c2cc(Cl)ccc2O)cc1 | 45

SMILES | Relaxation [%]
OCCN1CCN(CC(O)CSc2c(O)nc3ccc(C(F)(F)F)cc3c2-c2cc(Cl)ccc2O)CC1 (stereo not drawn) | 44
O=C(CCN1CCC(N2CCCCC2)CC1)Nc1ccc(Sc2c(O)nc3ccc(C(F)(F)F)cc3c2-c2cc(Cl)ccc2O)cc1 | 23
CN1CCN(CC(=O)Nc2ccc(Sc3c(O)nc4ccc(C(F)(F)F)cc4c3-c3cc(Cl)ccc3O)cc2)CC1 | 19
CN(C)C1CCN(CC(=O)Nc2ccc(Sc3c(O)nc4ccc(C(F)(F)F)cc4c3-c3cc(Cl)ccc3O)cc2)CC1 | 19
O=C(CCCN1CCCC1)Nc1ccc(Sc2c(O)nc3ccc(C(F)(F)F)cc3c2-c2cc(Cl)ccc2O)cc1 | 36
O=C(CN1CCN(c2ccccn2)CC1)Nc1ccc(Sc2c(O)nc3ccc(C(F)(F)F)cc3c2-c2cc(Cl)ccc2O)cc1 | 17
O=C(CCN1CCCC1)CSc1c(O)nc2ccc(C(F)(F)F)cc2c1-c1cc(Cl)ccc1O | 30
CN(C)C1CCN(C(=O)CSc2c(O)nc3ccc(C(F)(F)F)cc3c2-c2cc(Cl)ccc2O)CC1 | 35
O=C(CSc1c(O)nc2ccc(C(F)(F)F)cc2c1-c1cc(Cl)ccc1O)N1CCN(CCOCCO)CC1 | 17
O=S(=O)(CCCN1CCOCC1)Nc1ccc(Sc2c(O)nc3ccc(C(F)(F)F)cc3c2-c2cc(Cl)ccc2O)cc1 | 35
O=C(CCCN1CCN(c2ccccn2)CC1)Nc1ccc(Sc2c(O)nc3ccc(C(F)(F)F)cc3c2-c2cc(Cl)ccc2O)cc1 | 37
O=C(CN1CCOCC1)Nc1ccc(Sc2c(O)nc3ccc(C(F)(F)F)cc3c2-c2cc(Cl)ccc2O)cc1 | 34
O=C(CCN1CCCC1)Nc1ccc(Sc2c(O)nc3ccc(C(F)(F)F)cc3c2-c2cc(Cl)ccc2O)cc1 | 35
CN1CCN(C(=O)CSc2c(O)nc3ccc(C(F)(F)F)cc3c2-c2cc(Cl)ccc2O)CC1 | 14
Oc1ccc(Cl)cc1-c1c(SCC(O)CN2CCOCC2)c(O)nc2ccc(C(F)(F)F)cc12 (stereo not drawn) | 49
